Laboratory results: US11141491B2, “PH-sensitive lipid nanoparticles for encapsulation of anticancer drugs and microRNA and use thereof” (National Yang-Ming University, priority 2018, dated 2021)

How the values were obtained:
IEC-6 cells = experiment: Cell viability, sulforhodamine B assay, IEC-6; format: cell-based, rat; conditions: noncancerous IEC-6 cells, 48 h, SRB
[1] = pH-sensitive release (dialysis against PBS); format: physicochemical; conditions: both pH 7.4 and pH 6.5, 37° C.
Method: Irinotecan- or miR-loaded formulations were placed in a dialysis bag (1,000-3,500 MWCO) and dialyzed separately against PBS at pH 7.4 and 6.5. At the indicated time, solution was withdrawn from the incubation medium. The irinotecan concentrations were determined by HPLC to calculate the cumulative drug release %.

[2] = Biodistribution of irinotecan in SAS-luc-bearing nude mice; format: in vivo; conditions: UV spectrophotometer
Method: The biodistribution of irinotecan of different formulations in SAS-bearing mice was analyzed with UV spectrophotometer. (*statistical significance at P<0.05; **statistical significance at P<0.01; ***statistical significance at P<0.001).

[3] = Biochemical tests, H&E staining and TUNEL assay in CT26 tumor-bearing mice; format: in vivo; conditions: 48 h after last treatment
Method: Tumor-bearing mice were treated as described above. Blood samples (170 μl) were taken from the orbital sinus of mice 48 h after the final treatment. After harvesting and centrifugation for 15 min, liver, kidney and heart functions were assessed by detecting the serum levels of glutamate pyruvate transaminase (GPT), creatinine (CRE), and creatine kinase-MB (CK-MB) using corresponding activity assay kits (Fujifilm, Tokyo, Japan) and a clinical dry chemistry analyzer (Fuji Dri-Chem 7000V, Fujifilm Corp.). Additionally, the tumors and intestines were fixed in 4% paraformaldehyde overnight, embedded in paraffin, and cut into 5-μm-thick sections for H&E staining, and the histology of these samples was examined using an Olympus microscope.
TUNEL assay was performed to assess in vivo apoptosis in CT26 tumor-bearing mice at 48 h after last treatment of different formulations.^[42] In brief, the samples were frozen and fixed in 4% paraformaldehyde for 20 min. After washing with PBS for 10 min, the samples were immersed on ice for 2 min. After mixing with reaction dispersion (50 μL) according to the manufacture's manual (In Situ Cell Death Detection Kit, Roche, Germany), the section samples were stained with Hoechst in the nuclei for comparison and monitored using CLSM.

[4] = Biodistribution of irinotecan in CT26/tk-luc-bearing mice; format: in vivo; conditions: UV spectrophotometer
Method: The biodistribution of irinotecan of different formulations in CT26-bearing mice was analyzed by UV spectrophotometer (*statistical significance at P<0.05; **statistical significance at P<0.01; ***statistical significance at P<0.001).

CT26 tumor = experiment: In vivo antitumor efficacy, IVIS and PET/CT imaging, body weight in CT26-bearing mice; conditions: 28 days
Method: Male BALB/c mice at the age of 6 weeks with body weights of 20±2 g were purchased from National Laboratory Animal Center (Taipei, Taiwan) and maintained in an individual ventilation cage system. The animals were ensured free access to sterilized food and water. CT-26 (10^5 cells in 0.1 ml PBS) were injected subcutaneously into the right flank of mice to obtain tumor-bearing BALB/c mice. All processes performed on the animals were in accordance with the National Institutes of Health Guide for the Care and Use of Laboratory Animals and were approved by the National Yang-Ming University Animal Committee.
CT-26 cells (10^5 cells in 0.1 ml PBS) were injected subcutaneously into the right flank of mice to obtain tumor-bearing BALB/c mice. When tumor volume reached approximately 100 mm^3 (equation 4), the mice were randomly assigned to six groups (n=5 for each group). […] Mice were injected intravenously (IV) with Iri at 100 mg/kg and miR-200 at 1.25 mg/kg in different formulations every 7 days for 28 days. Fluorescence images were visualized one day after the final treatment using an IVIS […] (Caliper). […]
Tumor images were monitored using PET/CT. […]
Animal body weight and tumor size were detected every 3 or 4 days for 28 days. Tumor size was measured with a digital caliper and the tumor volume (V) was calculated (equation 4).

HCT116 cells [5] = experiment: Cell viability, sulforhodamine B assay, HCT116; format: cell-based, human; conditions: 48 h, SRB
Method: The cytotoxicity of formulations in rat small intestinal epithelial IEC-6 cells and human colorectal cancer HCT116 cells was determined using a sulforhodamine B (SRB) assay. After 48-h incubation with various formulations, the cells were stained with SRB for 10 min. The absorbance at 540 nm was detected with a microplate TECAN reader.

HCT116 cells [6] = experiment: Endocytosis mechanisms for uptake of DiI/Lip-RFKH; format: cell-based, human; conditions: 3 h-incubation, endocytosis inhibitor added

Row | Molecule | cytotoxicity to IEC-6 cells (IEC-6 cells) | release within 24 h [1] [%] | biodistribution of irinotecan [2] | serum CKMB level [3] | serum CRE level [3] | serum GPT level [3] | hemolysis (rat blood cells) | biodistribution of irinotecan [4] | body weight (CT26 tumor) | cytotoxicity / viability of HCT116 cells (HCT116 cells [5]; HCT116 cells) | cytotoxicity in HCT116 cells (HCT116 cells [5]; irinotecan at 4×10^−6 M) | relative fluorescence intensity % of DiI/Lip-RFKH (HCT116 cells [6])
1 | CCc1c2c(nc3ccc(OC(=O)N4CCC(N5CCCCC5)CC4)cc13)-c1cc3c(c(=O)n1C2)COC(=O)[C@]3(O)CC [irinotecan] | ≈ 30% | 100 | majorly in the liver, kidney, and intestines | provoked | provoked | provoked | ≈ 10% | mainly in the liver, kidney, and intestines | continuous decrease | concentration-dependent inhibition | ≈ 20% | –
2 | CN(C)CCCN1c2ccccc2Sc2ccc(Cl)cc21 [chlorpromazine] | – | – | – | – | – | – | – | – | – | – | – | significant decreases
3 | poly-L-lysine | – | – | – | – | – | – | – | – | – | – | – | significant decreases
